Data taken from ChEMBL document CHEMBL3885861, “Open TG-GATES”.

Species on record: Rattus norvegicus
Assay: Open TG-GATES - Regimen: Daily Repeat
Assay type: toxicity, organism-based, Sprague-Dawley
Set-up: regimen Daily Repeat, gender Male, age 6 weeks
Conditions: in vivo, po, 0 mg/kg, […], route gavage, dose level Control; for KIDNEY_L / KIDNEY_R / KIDNEY_TOTAL: tissue Kidney; for LIVER: tissue Liver; for A/G / ALP / ALT / AST / BUN / CRE / Ca / Cl / DBIL / GLC / IP / K / LDH / Na / PL / RALB / TBIL / TC / TG / TP / gamma-GTP: tissue Plasma

`CN(C)CCC(c1ccc(Cl)cc1)c1ccccn1` (stereo unspecified) [CHLORPHENIRAMINE] was tested, and the Lym (tissue Blood, time 28 day) was 76.4%, the MCH (tissue Blood, time 28 day) was 18.9 pg and the MCHC (tissue Blood, time 28 day) was 33.7%. The MCV (tissue Blood, time 28 day) was 56.2 fL, the Mono (tissue Blood, time 28 day) was 2% and the Neu (tissue Blood, time 28 day) was 19.8%. For the same compound, the PT (tissue Blood, time 28 day) was 14.5 s, the Plat (tissue Blood, time 28 day) was 115.9 x10_4/uL and the RBC (tissue Blood, time 28 day) was 813.8 x10_4/ul. For the same compound, the Ret (tissue Blood, time 28 day) was 2.5%, the WBC (tissue Blood, time 28 day) was 96.5 x10_2/uL and the KIDNEY_L (time 7 day) was 1 g. The KIDNEY_R (time 7 day) was 1 g, the KIDNEY_TOTAL (time 7 day) was 2.1 g and the KIDNEY_L (time 14 day) was 1.1 g. It also gave a KIDNEY_R (time 14 day) of 1.1 g, a KIDNEY_TOTAL (time 14 day) of 2.2 g and a KIDNEY_L (time 28 day) of 1.4 g. It also gave a KIDNEY_R (time 28 day) of 1.4 g, a KIDNEY_TOTAL (time 28 day) of 2.8 g and an LIVER (time 7 day) of 12.2 g. The LIVER (time 14 day) was 12.9 g, the LIVER (time 28 day) was 17.3 g and the A/G (time 7 day) was 0.8. It also gave an ALP (time 7 day) of 1518.2 IU/L, an ALT (time 7 day) of 43.2 IU/L and an AST (time 7 day) of 65.8 IU/L. The BUN (time 7 day) was 15.4 mg/dL, the CRE (time 7 day) was 0.2 mg/dL and the Ca (time 7 day) was 11.6 mg/dL. For the same compound, the Cl (time 7 day) was 104.8 meq/L, the DBIL (time 7 day) was 0.018 mg/dL and the GLC (time 7 day) was 193.8 mg/dL. For the same compound, the IP (time 7 day) was 8.1 mg/dL, the K (time 7 day) was 4.2 meq/L and the LDH (time 7 day) was 90.8 IU/L. The Na (time 7 day) was 143.2 meq/L, the PL (time 7 day) was 166.4 mg/dL and the RALB (time 7 day) was 2.8 g/dL. It also gave a TBIL (time 7 day) of 0.034 mg/dL, a TC (time 7 day) of 86.6 mg/dL and a TG (time 7 day) of 139.6 mg/dL. It also gave a TP (time 7 day) of 6.1 g/dL, a gamma-GTP (time 7 day) of 1 IU/L and an A/G (time 14 day) of 0.8. The ALP (time 14 day) was 1632.2 IU/L, the ALT (time 14 day) was 38.2 IU/L and the AST (time 14 day) was 66.4 IU/L. It also gave a BUN (time 14 day) of 15.6 mg/dL, a CRE (time 14 day) of 0.2 mg/dL and a Ca (time 14 day) of 10.9 mg/dL. It also gave a Cl (time 14 day) of 106.4 meq/L, a DBIL (time 14 day) of 0.016 mg/dL and a GLC (time 14 day) of 187.2 mg/dL. It also gave an IP (time 14 day) of 6.9 mg/dL, a K (time 14 day) of 4.2 meq/L and an LDH (time 14 day) of 77 IU/L. The Na (time 14 day) was 143.4 meq/L, the PL (time 14 day) was 153.4 mg/dL and the RALB (time 14 day) was 2.8 g/dL. It also gave a TBIL (time 14 day) of 0.038 mg/dL, a TC (time 14 day) of 72.6 mg/dL and a TG (time 14 day) of 126 mg/dL. The TP (time 14 day) was 6.1 g/dL, the gamma-GTP (time 14 day) was 1 IU/L and the A/G (time 28 day) was 0.8. For the same compound, the ALP (time 28 day) was 1089.8 IU/L, the ALT (time 28 day) was 37.2 IU/L and the AST (time 28 day) was 60.4 IU/L. It also gave a BUN (time 28 day) of 17.4 mg/dL, a CRE (time 28 day) of 0.2 mg/dL and a Ca (time 28 day) of 10.6 mg/dL. The Cl (time 28 day) was 106.8 meq/L, the DBIL (time 28 day) was 0.016 mg/dL and the GLC (time 28 day) was 186.2 mg/dL. For the same compound, the IP (time 28 day) was 6.3 mg/dL, the K (time 28 day) was 4.2 meq/L and the LDH (time 28 day) was 77.4 IU/L. It also gave a Na (time 28 day) of 144.8 meq/L, a PL (time 28 day) of 168.4 mg/dL and an RALB (time 28 day) of 2.9 g/dL. For the same compound, the TBIL (time 28 day) was 0.026 mg/dL, the TC (time 28 day) was 79.6 mg/dL and the TG (time 28 day) was 174 mg/dL. The TP (time 28 day) was 6.4 g/dL and the gamma-GTP (time 28 day) was 1 IU/L.
